According to patent US12102633B2, “Spirolactone compounds” (Quixgen, Inc., priority 2017, dated 2024):

How the values were obtained:
human ACC2 = biological target: T1, human ACC2 (Homo sapiens, UniProt O00763); test: Human ACC enzymatic activity assay (ACC2); format: biochemical; settings: purified human ACC2; read-out: EA-CoA hACC 2 IC50
T1 construct: purchased BPS Bioscience
Description: (§1) Human ACC enzymatic activity assays were performed by using purified human ACC1 and ACC2 proteins (BPS Bioscience). ACC1 and ACC2 proteins were diluted in 24.5 μL reaction buffer (50 mM HEPES pH 7.5, 10 mM MgCl2, 2.0 mM DTT, 4.0 mM ATP, 15 mM ^13C-NaHCO3, 0.75 mg/mL BSA, 0.5 mM sodium citrate), and final concentrations of ACC1 and ACC2 were 0.4 μg/mL and 0.48 μg/mL. For each reaction, 0.5 μL of serial diluted compounds were prepared in DMSO in duplicate or triplicate and mixed with the above 24.5 μL reaction mixtures with ACC proteins at 37° C. for 10 min. Meanwhile, 25 μL of reaction buffer plus acetyl-CoA (final concentration: 5 μM) was prepared freshly and added to the above 25 μL mixture to initiate the reaction. After incubation at 37° C. for 1-2 hours, 100 μl ice-cold 10% TCA with malonyl-^13C3-CoA (final concentration: 40 nM, Sigma-Aldrich) was added to terminate the reaction. For LC-MS/MS analysis, 300 μL quenching buffer (acetonitrile:methanol=1:1, 20 μM carbutamide as internal standard) was added to each tube and mixed well. Samples were then centrifuged at 14,000 rpm for 10 min (Eppendorf) and supernatants were loaded onto LC-MS/MS for quantitation of […] (Gao et al., Journal of chromatography B, Analytical technologies in the biomedical and life sciences 853, 303-313 (2007)).
(§2) Shimadzu LC system was used for sample analysis consisting of system controller (Shimadzu CBM-20A), autosampler (Shimadzu SIL-20A), pump A and B (Shimadzu LC-20AD), column oven (Shimadzu CTO-20A), and analytical column (Phenomenex Gemini 5u C18 11A, 100×2 mm). LC was running at 200 μL/min in the binary gradient mode with mobile phase A (5 mM Ammonium Acetate and 5 mM DMBA in water (1,3-Dimethylbutylamine)) and B (methanol). The samples were analyzed on an AB Sciex QTrap4000 LC-MS/MS triple quadrupole mass spectrometer (Applied Biosystems). Malonyl-CoA and malonyl-13C-CoA were monitored in positive ion mode following MRM transitions at 854.2/347.1 and 855.1/246.1, respectively. The product and internal standard were coeluted to the mass spectrometer in 3 s with 50% H2O, 25% MeCN, 25% acetone, and 5 mM ammonium acetate. Ion chromatograms were integrated using the Analyst 1.5.2 software. Peak area ratios were compared against a standard curve and final cellular concentration of malonyl-CoA or production rate of malonyl-13C-CoA was calculated as pmoles/mg protein per minute.

[1] = PK study in male C57 mouse for Examples 14 and 15; format: in vivo; settings: for concentration at 0.5 h: 0.50 h
Description: Pharmacokinetic studies were carried out with male C57 mouse. Compounds (Example 14 and Example 15) were each formulated in 5% DMSO+10% Solutol HS 15+85% Saline, and dosed at 1 mpk for IV injection (5 mL/kg) and 10 mpk for oral gavage (10 mUkg). Plasma samples at various time points were quantitated with LC-MS. Data reported were average of three mice.
Tables 1 and 2 below show plasma concentrations (ng/mL) and PK parameters of Example 14 in male C57 mouse after 1 mpk IV injection and 10 mpk PO gavage, respectively. The plasma concentration (ng/mL) of the acid compound, Example 15, was also measured and reported below.
Tables 3 and 4 below show plasma concentrations (ng/mL) and PK parameters of Example 15 in male C57 mouse after 1 mpk IV injection and 10 mpk PO gavage, respectively.

human ACC1 = biological target: T2, human ACC1 (Homo sapiens, UniProt Q13085); test: Human ACC enzymatic activity assay (ACC1); format: biochemical; settings: purified human ACC1; read-out: EA-CoA hACC 1 IC50
T2 construct: purchased BPS Bioscience
Description: as §1, §2

[2] = male, C57, mouse, plasma, iv, 1 mg/kg, Example 14 dosed 1 mpk IV, analyte = labelled compound
[3] = male, C57, mouse, plasma, iv, 1 mg/kg, Example 15 dosed 1 mpk IV
[4] = male, C57, mouse, plasma, po, 10 mg/kg, Example 14 dosed 10 mpk PO gavage, analyte = labelled compound
[5] = male, C57, mouse, plasma, po, 10 mg/kg, Example 15 dosed 10 mpk PO gavage
[6] = plasma, 1 mg/kg, Example 15 dosed 1 mpk IV

T1 sequence (O00763 whole entry): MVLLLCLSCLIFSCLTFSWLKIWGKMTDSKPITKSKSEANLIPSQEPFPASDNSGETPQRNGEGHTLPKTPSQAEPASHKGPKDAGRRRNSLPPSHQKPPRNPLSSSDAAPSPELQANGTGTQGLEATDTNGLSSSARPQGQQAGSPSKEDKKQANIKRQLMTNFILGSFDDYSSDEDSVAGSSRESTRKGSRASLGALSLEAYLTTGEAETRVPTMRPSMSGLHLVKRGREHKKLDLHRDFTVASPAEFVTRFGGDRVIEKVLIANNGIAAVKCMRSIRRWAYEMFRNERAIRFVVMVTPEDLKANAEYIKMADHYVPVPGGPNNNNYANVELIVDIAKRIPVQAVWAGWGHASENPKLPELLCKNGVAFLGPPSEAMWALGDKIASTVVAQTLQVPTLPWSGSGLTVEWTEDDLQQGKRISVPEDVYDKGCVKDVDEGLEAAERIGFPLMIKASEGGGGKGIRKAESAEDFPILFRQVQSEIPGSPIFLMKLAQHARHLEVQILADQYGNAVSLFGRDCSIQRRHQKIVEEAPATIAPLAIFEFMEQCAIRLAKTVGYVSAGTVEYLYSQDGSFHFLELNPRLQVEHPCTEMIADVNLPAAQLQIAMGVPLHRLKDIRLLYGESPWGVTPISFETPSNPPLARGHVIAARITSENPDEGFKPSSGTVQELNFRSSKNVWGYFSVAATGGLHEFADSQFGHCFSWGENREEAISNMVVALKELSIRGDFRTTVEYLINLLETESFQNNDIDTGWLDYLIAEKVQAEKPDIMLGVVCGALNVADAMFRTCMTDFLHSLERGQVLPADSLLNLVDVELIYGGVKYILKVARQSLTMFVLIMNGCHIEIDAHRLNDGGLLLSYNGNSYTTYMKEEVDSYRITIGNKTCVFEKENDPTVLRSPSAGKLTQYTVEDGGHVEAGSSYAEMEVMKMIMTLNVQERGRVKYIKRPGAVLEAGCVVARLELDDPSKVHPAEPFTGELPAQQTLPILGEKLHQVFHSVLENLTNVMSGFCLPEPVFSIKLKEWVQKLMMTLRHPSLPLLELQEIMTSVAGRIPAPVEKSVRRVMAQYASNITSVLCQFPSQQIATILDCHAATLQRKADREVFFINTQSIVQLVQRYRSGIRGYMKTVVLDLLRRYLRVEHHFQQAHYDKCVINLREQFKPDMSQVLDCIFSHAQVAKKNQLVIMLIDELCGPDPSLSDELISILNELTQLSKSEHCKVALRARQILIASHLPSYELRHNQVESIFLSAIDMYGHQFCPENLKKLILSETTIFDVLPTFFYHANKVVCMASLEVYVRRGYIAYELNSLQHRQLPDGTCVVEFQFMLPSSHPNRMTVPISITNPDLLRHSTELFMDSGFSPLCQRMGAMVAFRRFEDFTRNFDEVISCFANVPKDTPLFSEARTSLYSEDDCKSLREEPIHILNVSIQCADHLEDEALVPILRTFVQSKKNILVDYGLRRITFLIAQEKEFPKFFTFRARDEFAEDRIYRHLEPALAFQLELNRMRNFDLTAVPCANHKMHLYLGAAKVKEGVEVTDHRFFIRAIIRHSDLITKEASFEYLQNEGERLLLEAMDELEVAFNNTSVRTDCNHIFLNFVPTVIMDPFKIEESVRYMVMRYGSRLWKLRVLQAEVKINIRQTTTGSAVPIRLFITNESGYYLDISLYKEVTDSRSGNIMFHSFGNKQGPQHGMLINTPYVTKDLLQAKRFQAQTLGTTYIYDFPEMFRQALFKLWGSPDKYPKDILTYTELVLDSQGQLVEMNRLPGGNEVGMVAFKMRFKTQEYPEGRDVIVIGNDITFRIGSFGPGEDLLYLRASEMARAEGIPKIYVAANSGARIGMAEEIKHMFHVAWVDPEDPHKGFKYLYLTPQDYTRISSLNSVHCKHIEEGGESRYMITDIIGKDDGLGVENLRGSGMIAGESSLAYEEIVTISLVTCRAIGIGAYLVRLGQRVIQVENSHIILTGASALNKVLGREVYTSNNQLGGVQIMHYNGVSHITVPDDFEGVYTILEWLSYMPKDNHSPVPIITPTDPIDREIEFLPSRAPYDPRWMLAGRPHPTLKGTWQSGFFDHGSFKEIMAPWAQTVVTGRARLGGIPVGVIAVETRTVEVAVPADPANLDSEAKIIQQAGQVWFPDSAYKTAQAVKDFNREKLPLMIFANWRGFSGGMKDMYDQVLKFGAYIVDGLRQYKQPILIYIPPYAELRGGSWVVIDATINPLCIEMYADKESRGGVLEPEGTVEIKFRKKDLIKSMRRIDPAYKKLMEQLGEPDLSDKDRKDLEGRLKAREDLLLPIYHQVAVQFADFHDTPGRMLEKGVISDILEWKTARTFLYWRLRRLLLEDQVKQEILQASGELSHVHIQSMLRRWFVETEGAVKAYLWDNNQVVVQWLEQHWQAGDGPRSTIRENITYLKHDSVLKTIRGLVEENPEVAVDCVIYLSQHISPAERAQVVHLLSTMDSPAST

IC50 (human ACC2): 33 nM
Plasma Concentration, Mean ([1]; Example 14 dosed 1 mpk IV, 24.00 h, analyte = labelled compound): BLQ
Plasma Concentration, Mean ([1]; Example 15 dosed 1 mpk IV, 4.00 h): BLQ
Plasma Concentration, Mean ([1]; Example 15 dosed 1 mpk IV, 8.00 h): BLQ
Plasma Concentration, Mean ([1]; Example 15 dosed 1 mpk IV, 24.00 h): BLQ
F ([1]; Example 15 dosed 10 mpk PO gavage): 1.7%
Plasma Concentration, Mean ([1]; Example 15 dosed 10 mpk PO gavage, 24.00 h): BLQ
concentration at 0.08 h [1, 2]: 122 ng/mL
concentration at 0.25 h [1, 2]: 161 ng/mL
concentration at 0.5 h [1, 2]: 107 ng/mL
concentration at 1 h [1, 2]: 55 ng/mL
concentration at 2 h [1, 2]: 16 ng/mL
concentration at 4 h ([1]; male, C57, mouse, plasma, iv, 1 mg/kg, Example 14 dosed 1 mpk IV, 4.00 h, analyte = labelled compound): 3.4 ng/mL
concentration at 8 h ([1]; male, C57, mouse, plasma, iv, 1 mg/kg, Example 14 dosed 1 mpk IV, 8.00 h, analyte = labelled compound): 1.5 ng/mL
MRT [1, 3]: 6.6 min
concentration at 0.08 h [1, 3]: 3010 ng/mL
concentration at 0.25 h [1, 3]: 414 ng/mL
concentration at 0.5 h [1, 3]: 95 ng/mL
concentration at 1 h [1, 3]: 28 ng/mL
concentration at 2 h [1, 3]: 6.6 ng/mL
concentration at 0.25 h [1, 4]: 152 ng/mL
concentration at 0.5 h [1, 4]: 168 ng/mL
concentration at 1 h [1, 4]: 146 ng/mL
concentration at 2 h [1, 4]: 84 ng/mL
concentration at 4 h ([1]; male, C57, mouse, plasma, po, 10 mg/kg, Example 14 dosed 10 mpk PO gavage, 4.00 h, analyte = labelled compound): 43 ng/mL
concentration at 8 h ([1]; male, C57, mouse, plasma, po, 10 mg/kg, Example 14 dosed 10 mpk PO gavage, 8.00 h, analyte = labelled compound): 23 ng/mL
concentration at 24 h ([1]; male, C57, mouse, plasma, po, 10 mg/kg, Example 14 dosed 10 mpk PO gavage, 24.00 h, analyte = labelled compound): 2.1 ng/mL
Cmax [1, 4]: 185 ng/mL
MRT [1, 4]: 186 min
Tmax [1, 4]: 34.8 min
Cmax [1, 5]: 164 ng/mL
MRT [1, 5]: 59.4 min
Tmax [1, 5]: 15 min
concentration at 0.25 h [1, 5]: 164 ng/mL
concentration at 0.5 h [1, 5]: 99 ng/mL
concentration at 1 h [1, 5]: 63 ng/mL
concentration at 2 h [1, 5]: 11 ng/mL
concentration at 4 h ([1]; male, C57, mouse, plasma, po, 10 mg/kg, Example 15 dosed 10 mpk PO gavage, 4.00 h): 3.2 ng/mL
concentration at 8 h ([1]; male, C57, mouse, plasma, po, 10 mg/kg, Example 15 dosed 10 mpk PO gavage, 8.00 h): 2 ng/mL
Vd [1, 6]: 0.49 L/kg
clearance [1, 6]: 23.3 mL/min/kg
half-life [1, 6]: 17.4 min
IC50 (human ACC1): 27.5 nM
SMILES: COc1cc(C(=O)N2CCC3(CC2)Cc2ccc(-c4cncc(C(=O)O)c4)cc2C(=O)O3)nc2c(OC)cccc12 [Example 15, 5-(1′-(4,8-dimethoxyquinoline-2-carbonyl)-1-oxospiro [isochroman-3,4′-piperidin]-7-yl)nicotinic acid]
